Assays:
EA-activated TRPC5 = molecular target: T1, EA-activated TRPC5 (Mus musculus, UniProt Q9QX29); assay: FLIPR Ca2+ assay, E isomers silencing EA-activated TRPC5 (HEK293-mTRPC5-YFP); format: cell-based
T1 construct: expressed in transfected cells; host or cells: HEK293-mTRPC5-YFP
T1 sequence (Q9QX29 1-975): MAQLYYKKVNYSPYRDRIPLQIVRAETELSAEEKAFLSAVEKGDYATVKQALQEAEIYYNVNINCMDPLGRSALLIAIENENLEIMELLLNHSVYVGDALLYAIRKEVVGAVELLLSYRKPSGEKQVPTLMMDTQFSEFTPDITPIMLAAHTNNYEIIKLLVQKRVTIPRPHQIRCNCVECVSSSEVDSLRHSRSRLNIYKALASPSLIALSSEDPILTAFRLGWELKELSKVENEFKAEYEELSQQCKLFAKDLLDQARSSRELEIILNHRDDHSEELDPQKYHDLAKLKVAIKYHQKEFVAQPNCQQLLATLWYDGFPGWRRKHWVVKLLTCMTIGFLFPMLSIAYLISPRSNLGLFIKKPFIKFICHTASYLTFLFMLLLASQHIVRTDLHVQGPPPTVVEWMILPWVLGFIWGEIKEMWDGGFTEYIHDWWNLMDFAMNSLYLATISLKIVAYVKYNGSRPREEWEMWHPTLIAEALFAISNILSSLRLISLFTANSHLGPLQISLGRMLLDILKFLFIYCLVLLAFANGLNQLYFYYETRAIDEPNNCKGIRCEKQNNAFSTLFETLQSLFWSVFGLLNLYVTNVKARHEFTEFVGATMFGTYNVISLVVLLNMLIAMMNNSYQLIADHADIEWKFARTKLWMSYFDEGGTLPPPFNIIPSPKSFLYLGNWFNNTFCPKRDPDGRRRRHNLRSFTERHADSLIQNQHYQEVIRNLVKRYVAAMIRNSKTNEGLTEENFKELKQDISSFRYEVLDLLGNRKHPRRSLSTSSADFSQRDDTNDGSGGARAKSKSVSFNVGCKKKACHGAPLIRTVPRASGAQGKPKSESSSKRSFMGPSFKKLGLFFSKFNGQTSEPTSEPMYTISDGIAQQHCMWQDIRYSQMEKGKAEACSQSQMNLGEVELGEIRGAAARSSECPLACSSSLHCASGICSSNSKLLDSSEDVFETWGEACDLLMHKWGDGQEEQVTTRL
Source text: Müller, Niemeyer, et al., Schaefer & Thorn-Seshold 2025: Ideal Efficacy Photoswitching of TRPC4/5 in Tissue but it can justify why the affinity of the E/Z-isomers may be similar.
(§1) (2) The EC50 values are reported as the midpoints of unconstrained sigmoidal fits to the FLIPR data (Fig 1l and Supplementary Fig. 2): with different levels of channel activation / blocking and very different Hill slopes across different compounds, isomers, and the two channels. This argues that the midpoint values only capture one of the several important factors describing the […]
(§2) We believe that it is possible to derive indicative relative values for binding affinity comparing the E and Z isomers of the same compound using only the combination of FLIPR and ephys data as reported in this paper; this analysis is being developed in a separate paper (see also below).
(§3) Supplementary Table 1. Potencies on TRPC4/5 depicted as either simple agonistic potency (blue) or else inhibitory […]
(§4) . Z*-values refer to mostly-Z-isomer reached at PSS at 365 nm, E*-values refer to experiments that initially applied 100% E-isomer (thermally relaxed), though in both cases the Ca2+ imaging in FLIPR with Fluo4-AM uses 470 nm excitation, which may over time promote photoswitching towards a PSS that is intermediate between those of pure-365 nm and all-E; this is controlled for in the more reliable ephys measurements). (Table indices: a, data from ref7; b, data from ref2; c, data from ref3; d, data from ref8.) EC50 [nM] (for simple agonism or EA-competitive inhibition)
(§5) E-AzPico 90 (vs 30 nM EA) 67 (vs 30 nM EA) […]
(§6) orange: inhibitory effect ag.: agonistic effect
(§7) 1.1.1 From always-active antagonists and agonists towards efficacy photoswitches […]
(§8) photoisomerising an azobenzene that is merged in at the C’4 position yielding the compounds […]
inhibitory effect for the E-isomers (Supplementary Table 1). Essentially, the effects of Pico145 and AM237 are latent within a single (two-state reversibly photoswitchable) molecule. This combination is what we call an efficacy switch (also see main text Fig. 1e-j).
1.1.2 Mechanistic test for efficacy photoswitching […]
deliver (Fig. 1-2) is a powerful support for an efficacy switch interpretation. To indirectly support this further, we also measured the effects of E-AzPico and E-AzHC against EA-activated TRPC4/5.
Both E-isomers bind to TRPC4/5 and inhibit EA-evoked currents with nanomolar potencies (Supplementary Fig. 2, Supplementary Table 2). This supports the hypothesis that E- […]
(§9) to be an EA-competitive binder5,9,10), so their efficacy as single agent photoswitches results from E/Z-competitive binding that is determined by their PSS. […]
(§10) Supplementary Table 2. […] (a Inhibitory effect measured against 30 nM EA; b Inhibitory effect measured against 50 nM EA). […]

EA-activated TRPC4 = molecular target: T2, EA-activated TRPC4 (Mus musculus, UniProt Q9QUQ5); assay: FLIPR Ca2+ assay, E isomers silencing EA-activated TRPC4 (HEK293-mTRPC4β-YFP); format: cell-based; settings: Inhibitory IC50 (versus 30 nM EA) TRPC4, E isomer, thermally relaxed; 30 nM EA
T2 construct: expressed in transfected cells; host or cells: HEK293-mTRPC4β-YFP
T2 sequence (Q9QUQ5 1-890 isoform Q9QUQ5-2): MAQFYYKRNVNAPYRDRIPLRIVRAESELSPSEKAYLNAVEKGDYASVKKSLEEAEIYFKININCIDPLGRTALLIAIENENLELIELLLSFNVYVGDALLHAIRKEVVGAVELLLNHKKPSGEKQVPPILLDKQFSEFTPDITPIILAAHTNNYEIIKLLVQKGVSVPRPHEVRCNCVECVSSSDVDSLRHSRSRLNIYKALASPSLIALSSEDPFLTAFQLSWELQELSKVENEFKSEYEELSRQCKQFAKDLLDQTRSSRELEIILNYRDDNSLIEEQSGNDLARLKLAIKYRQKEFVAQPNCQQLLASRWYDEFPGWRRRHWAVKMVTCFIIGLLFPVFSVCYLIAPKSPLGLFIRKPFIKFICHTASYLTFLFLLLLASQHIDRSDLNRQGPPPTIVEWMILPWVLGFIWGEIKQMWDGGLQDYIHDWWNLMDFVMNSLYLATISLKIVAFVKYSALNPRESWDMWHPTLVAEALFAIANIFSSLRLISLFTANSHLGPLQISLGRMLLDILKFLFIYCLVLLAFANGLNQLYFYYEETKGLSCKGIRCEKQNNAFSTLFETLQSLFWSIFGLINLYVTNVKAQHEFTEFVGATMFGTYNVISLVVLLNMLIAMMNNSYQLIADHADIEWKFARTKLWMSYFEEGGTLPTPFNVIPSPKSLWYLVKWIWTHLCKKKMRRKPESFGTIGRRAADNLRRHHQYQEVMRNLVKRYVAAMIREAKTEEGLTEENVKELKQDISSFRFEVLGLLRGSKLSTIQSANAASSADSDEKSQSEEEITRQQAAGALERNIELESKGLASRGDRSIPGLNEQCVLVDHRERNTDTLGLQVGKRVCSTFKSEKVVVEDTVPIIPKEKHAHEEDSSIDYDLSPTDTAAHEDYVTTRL
Source text: as §1, §2, §3, §4, §5, §6, §7, §8
deliver (Fig. 1-2) is a powerful support for an efficacy switch interpretation. To indirectly support this further, we also measured the effects of E-AzPico and E-AzHC against EA-activated TRPC4/5. […]
as §9, §10

mouse TRPC4β = molecular target: T3, mouse TRPC4β (Mus musculus, UniProt Q9QUQ5); assay: FLIPR Ca2+ influx assay (Fluo-4) with 365/447 nm photoswitching, HEK293 stably expressing mouse TRPC4β; format: cell-based; settings: Z* = mostly-Z PSS under 365 nm LED; Fluo-4-loaded cells; read-out: Agonistic EC50 (365 nm) TRPC4
T3 construct: expressed in transfected cells; host or cells: HEK293 (ATCC CRL 1573), stably transfected, tetracycline-induced
T3 sequence (Q9QUQ5 1-890 isoform Q9QUQ5-2): T2 sequence (Q9QUQ5 1-890 isoform Q9QUQ5-2)
Source text: (§11) We initially screened for the photoswitchability of activity in cells using a fluorometric imaging plate reader (FLIPR) calcium flux assay, with HEK293 cells stably expressing mouse TRPC4β or mouse TRPC5. Note, however, that the parallel-throughput FLIPR setup is limited to use fixed light-emitting diodes at 365 nm (good Z) and 447 nm (suboptimal E), which, combined with the slowness of the onset and recovery of the fluorescence readout for calcium, causes the FLIPR results to underestimate the reagents’ true speed, degree and completion of TRPC chromocontrol (shown later). […]
(§12) 3 Cultured Cell Lines (primarily for Fig. 1 and Fig. 2)
(§13) 3.1 FLIPR Ca2+ influx assay in cell suspensions.
(§14) We initially screened for photoswitchability of activity in cells, using a fluorometric imaging plate reader (FLIPR) calcium flux assay, with human embryonic kidney cell line HEK293 stably transfected to express mouse TRPC4β- or TRPC5-CFP fusion protein (HEKmTRPC4β-CFP / HEKmTRPC5-CFP, HEK293 obtained from ATCC CRL 1573). The FLIPR setup provides high-content data, but it is limited to using LED wavelengths of 365 nm (best-Z) and 447 nm (suboptimal-E), while imaging at 470 nm excitation (Fluo-4 AM as Ca2+ indicator; this imaging light counteracts both PSSs). Therefore, we expected the FLIPR results to under-estimate the true chromocontrol power accessible to the reagents.
(§15) Cells were grown to 70%-90% confluency in a 75-cm2 culture flask, trypsinised, washed and resuspended in BSA-containing (0.1%) HBS, and supplemented with 3 µM Fluo-4/AM. Stably TRPC-transfected cells were induced with tetracycline 24 h prior to the experiments.42,43 After incubation at 37°C for 30 min [Fluo-4 loading], cells were again washed, resuspended, and dispensed (40 µl/well) into black pigmented, clear-bottom 384-well plates (Greiner µ-clear). To image the Fluo-4 fluorescence during the application and photoswitching of test compounds, these plates were first mounted to a Tecan Fluent 480 (Tecan, Männedorf, Switzerland) liquid handling device, equipped with a 384-tip multichannel arm and a gripper arm. A custom-made plate-imaging device was used for photoswitching during fluorescence imaging, which features LED-based excitation modules (365 nm and 447 nm used here for photoswitching, and 470 nm used here for Fluo-4 readout) projected onto the bottom of the microwell plate, with a cooled scientific complementary metal oxide sensor (sCMOS) camera (Zyla 5.5, Andor, Belfast, UK) equipped with a Nokton 42.5 mm f/0.95 (Voigtlaender, Fürth, Germany) for detection. The LEDs were controlled with an Arduino device and constant current drivers (1 A for 365 and 470 nm LEDs; 3 A for 447 nm LED); detection was under the control of Micromanager 2.0 software. Compounds were serially diluted and applied to the Fluo-4-loaded cell suspensions inside this custom plate-imaging device, then fluorescence intensities (under 470 nm excitation) were continuously recorded during programmed illuminations e.g. with alternating 365 nm and 447 nm phases.
(§16) Concentration-response curves for the Z-isomers (channel activation) were then constructed from the maximal signals during 365 nm phases, after a suitable number of "priming" cycles to allow the system to reach stable performance (Supplementary Fig. 13).
All experiments were conducted as a minimum of 3 independent experiments with each experiment averaging data in technical duplicates.
Cellular TRPC4 photoswitching: HEK cell Ca2+ influx photomodulation […]
Supplementary Figure 12. […]

[1] = system: Th+ neurons of Th-GCaMP6f-ΔTrpc5 mice; assay: GCaMP6f Ca2+ imaging of Th+ neurons in arcuate nucleus brain slices with 355 nm photoswitching, Th-GCaMP6f-ΔTrpc5 (5ko) mice; settings: 500 nM; 355 nm pulse
Source text: slices through the ARC of mice expressing the Ca2+ indicator GCaMP6f in Th+ neurons (Fig. 4),
we investigated (1) whether Ca2+ responses at endogenous TRPC5 expression levels can be
TRPC5 expression using TRPC5-deficient brain slices, (3) whether a dose dependence could be
detected, and (4) whether there are properties in channel activity that can be distinguished between
concentration-response measurements (Fig. 5d).

mouse TRPC5 = molecular target: T4, mouse TRPC5 (Mus musculus, UniProt Q9QX29); assay: FLIPR Ca2+ influx assay (Fluo-4) with 365/447 nm photoswitching, HEK293 stably expressing mouse TRPC5; format: cell-based; settings: Z* = mostly-Z PSS under 365 nm LED; Fluo-4-loaded cells; read-out: Agonistic EC50 (365 nm) TRPC5
T4 construct: expressed in transfected cells; host or cells: HEK293 (ATCC CRL 1573), stably transfected, tetracycline-induced
T4 sequence (Q9QX29 1-975): T1 sequence (Q9QX29 1-975)
Source text: as §11, §12, §13, §14, §15, §16
All experiments were conducted as a minimum of 3 independent experiments with each experiment averaging data in technical duplicates. […]
Cellular TRPC5 photoswitching: HEK cell Ca2+ influx photomodulation […]
Supplementary Figure 12. […] All […]
four compounds' profiles are consistent with their being ideal efficacy photoswitches (representative traces from one experiment out of ≥3 independent experiments each run in technical duplicates). […]
log c [nM] log c [nM] log c [nM] log c [nM]
Supplementary Figure 13. Dose-response for Z*-AzPico, Z*-AzPico2, Z*-AzHC, and Z*-AzHC2 on TRPC5 and […]

IC50 (EA-activated TRPC5; Inhibitory IC50 (versus 30 nM EA) TRPC5, E isomer, thermally relaxed, 30 nM EA)	IC50 (EA-activated TRPC5; Inhibitory IC50 (versus 50 nM EA) TRPC5, E isomer, 50 nM EA)	IC50 (EA-activated TRPC4)	EC50 (mouse TRPC4β)	EC50 (mouse TRPC5)	SMILES	Ca2+ photoresponse in TRPC5-knockout slices [1]
149 nM	177 nM	110 nM			Cn1c(=O)n(CCCO)c(=O)c2c1nc(Oc1ccc(/N=N/c3ccccc3)c(Cl)c1)n2Cc1ccc(Cl)cc1 [E-AzHC]	
			3 nM	4 nM	Cn1c(=O)n(CCCO)c(=O)c2c1nc(Oc1ccc(/N=N\c3ccccc3)c(OC(F)(F)F)c1)n2Cc1ccc(Cl)cc1 [Z*-AzPico]	maintained

From article PMC12858405, “Ideal efficacy photoswitching for chromocontrol of TRPC4/5 channel functions in live tissues” (Nature Chemical Biology, 2026)
